Results taken from patent US9060981B2, “Marker associated with non-alcoholic steatohepatitis” (MOCHIDA PHARMACEUTICAL CO., LTD., priority 2009, dated 2015).
Entries after “also recorded” stand apart in the source; their conditions may differ.

Assays:
NASH model rats = conditions: telmisartan administered for 10 weeks; cited from earlier work
B6 mice = experiment: Fatty liver in B6 mice raised 20 weeks on high fat/high sugar diet; assay type: in vivo, mouse; conditions: high fat/high sugar diet + 5% EPA-E, free feeding, 20 weeks (group III)
Excerpt: B6 mice (10 week old) were divided into control group (I), HF-HS group (II), and EPA group (III) (n=7 to 10), and the mice were raised for 20 weeks by free feeding of the following diet.

[1] = tested on: second factor group genes in the liver; experiment: Gene microarray analysis of the liver of mice on high fat/high sugar diet; assay type: in vivo, mouse; conditions: EPA group vs HF-HS group, 20 weeks
Excerpt: (2) Next, expression of genes in the liver was compared in 3 groups, namely, the control group fed with normal diet, the HF-HS group, and the EPA group. […] (A) HF-HS group/control group ≧2 and EPA group/HF-HS group ≦0.5. (B) HF-HS group/control group ≦0.5 and EPA group/HF-HS group ≧2. Liver was extirpated from the mice of each group, and RNA was extracted by homogenization to conduct gene microarray analysis of the liver. The genes were selected as described below. (1) Genes with group II/group I expression ratio of 2 or higher and group III/group II expression ratio of up to 1/2 were selected. (2) Genes with the group II/group I expression ratio of up to 1/2 and the group III/group II ratio of 2 or more were selected. […] (4) Genes which are (1) but not (3) were selected. (5) Genes which are (2) but not (3) were selected. Next, factors with the possibility of protein secretion into blood were selected from the genes (4), and then, genes satisfying any of relevance with lipid metabolism, relevance with inflammation, increase of expression in the liver of SREBP transgenic mouse were selected from these genes. Genes were selected from the genes (5) by conducting the procedure corresponding to (6).

| Structure (SMILES) | expression of TIMP1 and TIMP2 mRNAs in the liver tissue (NASH model rats) | liver fibrosis (NASH model rats) | fatty liver (B6 mice) | group III/group II expression ratio, second factor (A) group genes ([1]; genes with group II/group I ratio of 2 or higher (Table 2)) | group III/group II expression ratio, second factor (B) group genes ([1]; genes with group II/group I ratio of up to 1/2 (Table 3)) |
| --- | --- | --- | --- | --- | --- |
| CCCc1nc2c(C)cc(-c3nc4ccccc4n3C)cc2n1Cc1ccc(-c2ccccc2C(=O)O)cc1 [telmisartan] | decrease | suppression; also recorded: suppressed | – | – | – |
| CC/C=C\C/C=C\C/C=C\C/C=C\C/C=C\CCCC(=O)OCC [EPA-E, ethyl icosapentate] | – | – | fatty liver was not observed; also recorded: fatty liver was not induced | up to 1/2 | ≥ 2 |
